The source of these data is the COVID Moonshot data (paper PMC11187573), “Identification of SARS-CoV-2 Mpro inhibitors through deep reinforcement learning for de novo drug design and computational chemistry approaches” (RSC Medicinal Chemistry, 2024).

In the test the target is SARS-CoV-2 Main Protease (SARS-CoV-2) (UniProt P0DTD1).

Regarding `CCn1c(=O)c(-c2cc[nH]n2)cc2c(C)nc(N)nc21`, the inhibition is, setting by setting: (20.0 µM) -0.487%; (50.0 µM) 4.38%.

As to `Cn1cc(NC(=O)N2CCN(C(=O)c3ccco3)CC2)c2ccccc2c1=O`, the inhibition is, setting by setting: (20.0 µM) -4.83%; (50.0 µM) -2.88%.

`CC(NC(=O)COc1ccc(C(N)=O)cc1)(C(=O)Nc1cncc2ccccc12)c1ccc(Cl)c(Cl)c1` (stereo not given) gave an IC50 of 12300 nM.

Turning to `COc1ccc2nc(NC(=O)Nc3cn(CC(C)C)c(=O)c4ccccc34)sc2c1`, the inhibition (20.0 µM) came out at 21.3% and the inhibition (50.0 µM) was determined as 17.6%.

With `CCc1ccccc1N(CC)C(=O)Nc1cn(C)c(=O)c2ccccc12`, the inhibition by setting is: (20.0 µM) -3.06%; (50.0 µM) 22.3%.

On to `CC(=O)c1cccc(NC(=O)Nc2cn(C)c(=O)c3ccccc23)c1`, for which the inhibition runs as follows: (20.0 µM) 22.4%; (50.0 µM) 11.9%.

Regarding `Cn1cc(NC(=O)NCCCN2CCc3ccccc3C2)c2ccccc2c1=O`, the inhibition (20.0 µM) was -2.25% and the inhibition (50.0 µM) was 1.39%.

`O=C(Nc1cncc2ccccc12)[C@H]1COc2ccc(Cl)cc21` (stereo in doubt): the IC50 came out at 26900 nM.

Consider `C=CC(=O)N(c1ccc(CCC#N)cc1)C(C(=O)NC(C)(C)C)c1cccnc1` (stereo not given), for which the inhibition stood at 1.48% (20.0 µM) and 3.3% (50.0 µM).

In the case of `Cc1[nH]c2ncnc(NC(=O)C3CCN(c4ccc(Cl)cn4)CC3)c2c1C`, the inhibition was -8.15% (20.0 µM) and -5.21% (50.0 µM).

As for `Cc1ccncc1CC(=O)Nc1cccc2c1CNCC2`, the inhibition (20.0 µM) is -1.08% and the inhibition (50.0 µM) is 2.76%.

Turning to `O=C1CCCCC(C(=O)Nc2ccc(-c3nc[nH]n3)cc2F)N1` (stereo not given), the inhibition (20.0 µM) is -4.07% and the inhibition (50.0 µM) was -3.07%.

In the case of `O=C(Nc1cnn2ccc(N3CCC[C@@H]3c3cc(F)ccc3F)nc12)N1CC[C@H](O)C1` (stereo in doubt), the inhibition reads like this: (20.0 µM) -17.2%; (50.0 µM) -4.24%.

Turning to `Cc1ccc(NC(=O)Nc2cn(CC(C)C)c(=O)c3ccccc23)c(Br)c1`, the inhibition turned out to be 8.16% (20.0 µM) and 9.66% (50.0 µM).

With `CC(C)Oc1ccc(N(C(=O)c2cnc[nH]2)C(C(=O)NCCc2cccc(F)c2)c2cccnc2)cc1` (stereo not given), the IC50 is 712 nM.

Consider `COc1ccc(OC)c(CNC(=O)Nc2cn(CC(C)C)c(=O)c3ccccc23)c1`, for which the inhibition is, setting by setting: (20.0 µM) 18.5%; (50.0 µM) 0.63%.

Molecule `CN(Cc1cccc2ccccc12)c1cc(Cl)cc(CC(=O)Nc2cncc3ccccc23)c1` displayed a half-maximal inhibitory concentration (IC50) of 1730 nM.

`CC(NC(=O)CN)(C(=O)Nc1cncc2ccccc12)c1ccc(Cl)c(Cl)c1` (stereo not given) had an IC50 of 3380 nM.

As to `COc1cc(Cl)nc(Nc2cc(Cl)cc(CC(=O)Nc3cncc4ccccc34)c2)n1`, the IC50 was 504 nM.

Consider `COc1ccc(N2C(=O)CCS2(=O)=O)cc1S(=O)(=O)Nc1cccc2cccnc12`, for which the inhibition runs as follows: (20.0 µM) 65.3%; (50.0 µM) 37.4%.

As for `CCN(Cc1ccc(F)cc1)c1cc(Cl)cc(CC(=O)Nc2cncc3ccccc23)c1`, the IC50 stood at 1410 nM. This lies in the single-digit micromolar range.

Consider `Cn1cc(NC(=O)NCc2ccccn2)c2ccccc2c1=O`, for which the inhibition was -2.84% (20.0 µM) and -6.9% (50.0 µM).

Consider `CC(C)Cn1cc(NC(=O)Nc2nc3ccccc3s2)c2ccccc2c1=O`, for which the inhibition was 3.79% (20.0 µM) and 12.2% (50.0 µM).

Turning to `COc1ccc(OC)c(CNC(=O)Nc2cn(C)c(=O)c3ccccc23)c1`, the inhibition reads like this: (20.0 µM) 25%; (50.0 µM) 3.4%.

For the molecule `Cn1cc(NC(=O)N(Cc2ccco2)CC2CCCO2)c2ccccc2c1=O` (stereo not given), the inhibition runs as follows: (20.0 µM) 2.81%; (50.0 µM) 0.168%.

Regarding `CC(C)Cn1cc(NC(=O)NCc2ccc3c(c2)OCO3)c2ccccc2c1=O`, the inhibition is 15.3% (20.0 µM) and 11.2% (50.0 µM).

For the molecule `Nc1n[nH]c2cc(O)nc(O)c12`, the inhibition came to 6.14% (20.0 µM) and 30.9% (50.0 µM).

`O=C(Nc1nncn1C1CC1)C1CCOc2c(F)cccc21` (stereo not given): the inhibition reads like this: (20.0 µM) 2.37%; (50.0 µM) 3.56%.

In the case of `CCOC(=O)N1CCC(NC(=O)Nc2cn(C)c(=O)c3ccccc23)CC1`, the inhibition reads like this: (20.0 µM) -1.08%; (50.0 µM) 1.92%.

On to `NCc1cn(CC(=O)N(Cc2ccsc2)c2ccc(N3CCOCC3)cc2)nn1`, for which the inhibition (20.0 µM) is -4.16% and the inhibition (50.0 µM) was -1.29%.

For `Cc1nc2n(n1)CC(C(=O)NC(C)(C(=O)Nc1cncc3ccccc13)c1ccc(Cl)c(Cl)c1)CC2` (stereo not given), the IC50 was found to be 4820 nM.

Consider `CCN(CC)S(=O)(=O)c1ccc(NC(=O)Nc2cn(C)c(=O)c3ccccc23)cc1`, for which the inhibition is 0.771% (20.0 µM) and -1.21% (50.0 µM).

Consider `Cn1cc(NC(=O)Nc2cccc(C(F)(F)F)c2)c2ccccc2c1=O`, for which the inhibition (20.0 µM) was -2.91% and the inhibition (50.0 µM) is 0.168%.

`COc1ccc(OC)c(CCNC(=O)Nc2cn(CC(C)C)c(=O)c3ccccc23)c1`: the inhibition is, setting by setting: (20.0 µM) 1.12%; (50.0 µM) 2.5%.

`O=C(Cc1cc(Cl)cc(Nc2ccc(C(F)(F)F)cn2)c1)Nc1cncc2ccccc12` gave an IC50 of 1220 nM.

As to `O=C1CC(C(=O)Nc2cncc3ccccc23)c2cc(Cl)cc(Cl)c2N1` (stereo not given), the IC50 was 3040 nM.

As for `CCOC(=O)Cc1csc(NC(=O)Nc2cn(CC(C)C)c(=O)c3ccccc23)n1`, the inhibition is, setting by setting: (20.0 µM) 23.2%; (50.0 µM) 2.55%.

Regarding `CC(C)Cn1cc(NC(=O)N2CCCN(Cc3ccccc3F)C2)c2ccccc2c1=O`, the inhibition runs as follows: (20.0 µM) -1.37%; (50.0 µM) -3.78%.

For the molecule `COc1cc(Cl)c(C)cc1NC(=O)Nc1cn(C)c(=O)c2ccccc12`, the inhibition (20.0 µM) was determined as 23.7% and the inhibition (50.0 µM) came out at 5.81%.

For the molecule `CN(C)C(=O)c1cc2cnc(Nc3ccc(N4CCNCC4)cn3)nc2n1C1CCCC1`, the inhibition is, setting by setting: (20.0 µM) -3.84%; (50.0 µM) -4.06%.

As for `CC(C)Cn1cc(NC(=O)N2CCC(c3ccccc3)C2)c2ccccc2c1=O` (stereo not given), the inhibition is -2.21% (20.0 µM) and 0.973% (50.0 µM).

For `O=C(COc1ccccc1F)Nc1ncnc2[nH]cnc12`, the inhibition is -6.54% (20.0 µM) and -3.69% (50.0 µM).

With `COc1cc(Br)ccc1Nc1cc(Cl)cc(CC(=O)Nc2cncc3ccccc23)c1`, the IC50 was 1390 nM.

In the case of `Cn1cc(NC(=O)NCCc2ccsc2)c2ccccc2c1=O`, the inhibition by setting is: (20.0 µM) 14.5%; (50.0 µM) 8.36%.

`CC1CN(C)CCN1C(=O)CC1(C(=O)Nc2cncc3ccccc23)CCOc2ccc(Cl)cc21` (stereo not given) came in with an IC50 of 6180 nM.

In turn, `O=C(CC1(C(=O)Nc2cncc3ccccc23)CCOc2ccc(Cl)cc21)N1CCOCC1CC(F)F` (stereo not given) returned an IC50 of 9840 nM.

The molecule `COC[C@]1(C(=O)Nc2cncc3ccccc23)CCOc2cc(Cl)c(Cl)cc21` (stereo in doubt) displayed an IC50 of 3220 nM.

`Cc1ccc2nc(Nc3cc(Cl)cc(CC(=O)Nc4cncc5ccccc45)c3)sc2c1` displayed an IC50 of 450 nM. This IC50 is about 7.2-fold lower than that of the molecule before.

Regarding `COC(=O)C(c1ccccc1Cl)N1CCC(S)/C(=C/C(=O)O)C1` (stereo not given), the inhibition runs as follows: (20.0 µM) -2.05%; (50.0 µM) 1.77%.

Regarding `CCCc1c(C)[nH]c2[nH]n(-c3ccccc3)c(=O)c2c1=O`, the inhibition is, setting by setting: (20.0 µM) 4.23%; (50.0 µM) 2.81%.

`CC(C)Cn1cc(NC(=O)NC2CCCc3ccccc32)c2ccccc2c1=O` (stereo not given): the inhibition amounted to 26.4% (20.0 µM) and 12.2% (50.0 µM).

For the molecule `NC(=O)C[S@@+]([O-])C(c1ccccc1)c1ccccc1` (stereo in doubt), the inhibition runs as follows: (20.0 µM) -1.76%; (50.0 µM) -1.92%.

Turning to `O=C(Nc1nncn1C1CC1)C1CCOc2ccccc21` (stereo not given), the inhibition by setting is: (20.0 µM) -1.27%; (50.0 µM) 2.15%.

With `CC(C)Cn1cc(NC(=O)NCc2ccco2)c2ccccc2c1=O`, the inhibition (20.0 µM) came out at 50.5% and the inhibition (50.0 µM) turned out to be 90.3%.

Consider `CC(C)Cn1cc(NC(=O)NCCN2CCOCC2)c2ccccc2c1=O`, for which the inhibition runs as follows: (20.0 µM) -1.08%; (50.0 µM) -1.81%.

On to `COc1cc(OC)nc(O[C@H](C(=O)O)C(OC)(c2ccccc2)c2ccccc2)n1` (stereo in doubt), for which the inhibition was -28.4% (20.0 µM) and 2.42% (50.0 µM).

On to `O=C1C(Nc2ncnc3[nH]cnc23)CCN1Cc1ccccc1` (stereo not given), for which the inhibition is -6.26% (20.0 µM) and -5.36% (50.0 µM).

On to `O=C(N[C@@H](Cc1cc(=O)[nH]c2ccccc12)C(=O)O)c1ccc(Cl)cc1` (stereo in doubt), for which the inhibition was 1.24% (20.0 µM) and -22.3% (50.0 µM).

With `CC(CCc1ccco1)NC(=O)Nc1cn(C)c(=O)c2ccccc12` (stereo not given), the inhibition by setting is: (20.0 µM) 32.6%; (50.0 µM) 67.9%.

For the molecule `Cn1ccc(CN(C(=O)Cc2cccnc2)c2ccc(-c3ccccn3)cc2)n1`, the inhibition (20.0 µM) was 6.62% and the inhibition (50.0 µM) was found to be 16.1%.

Take `COc1ccc(NC(=O)c2ccc(C(=N)N(C)C)cc2)c(C(=O)Nc2ccc(Cl)cn2)c1`: the inhibition is -17.3% (20.0 µM) and -3.35% (50.0 µM).

`COc1ncc(Br)cc1Nc1cc(Cl)cc(CC(=O)Nc2cncc3ccccc23)c1`: the IC50 amounted to 681 nM.

In turn, `O=C(Nc1cncc2ccccc12)[C@@H]1COc2ccc(Cl)cc21` (stereo in doubt) had an IC50 of 555 nM.

`CC(C)Cn1cc(NC(=O)N2CCC(Cc3ccccc3)CC2)c2ccccc2c1=O`: the inhibition reads like this: (20.0 µM) -4.27%; (50.0 µM) 3.43%.

For `CC(NC(=O)c1cc2n(n1)CCO2)(C(=O)Nc1cncc2ccccc12)c1ccc(Cl)c(Cl)c1` (stereo not given), the IC50 was determined as 8520 nM.

As to `Cc1ccncc1NC(=O)Cc1ccc2[nH]ncc2c1`, the inhibition (20.0 µM) was -1.11% and the inhibition (50.0 µM) turned out to be 0.248%.

In the case of `O=C(Cc1cc(Cl)cc(NCc2ccc(Br)cc2)c1)Nc1cncc2ccccc12`, the IC50 turned out to be 1430 nM.

As for `Cc1ccncc1NC(=O)N(C)c1cccc(Cl)c1`, the inhibition (20.0 µM) was 17.6% and the inhibition (50.0 µM) amounted to 33.8%.

With `O=C(O)C12CC(CNCc3ccc4c(c3)OCC4)(C1)OC2c1ccccc1` (stereo not given), the inhibition runs as follows: (20.0 µM) -3.12%; (50.0 µM) -4.27%.

For `C[C@@H]1COCCN1c1cc(C2([S@](C)(=N)=O)CC2)nc(-c2cncc3[nH]ccc23)n1` (stereo in doubt), the inhibition (20.0 µM) is -0.821% and the inhibition (50.0 µM) was found to be 3.82%.

For the molecule `CC(C)Cn1cc(NC(=O)NC2CCCCCC2)c2ccccc2c1=O`, the inhibition (20.0 µM) was 4.79% and the inhibition (50.0 µM) stood at 2.3%.

As for `CC(C)Cn1cc(NC(=O)NCC2CCCO2)c2ccccc2c1=O` (stereo not given), the inhibition reads like this: (20.0 µM) -0.42%; (50.0 µM) 6.75%.

A word on the inhibition: it is the relative decrease from the control value, in per cent. For orientation: IC50 means the concentration that gives 50% inhibition. High values mean weaker potency, low ones greater potency.
